# System: PC-3 cells
# Assay: Tumor cell growth inhibition, sulforhodamine B (SRB) staining
# Format: cell-based
# Settings: PC-3 human prostatic carcinoma cells, 48 hrs, absorbance 540 nm, adriamycin as positive control
# Procedure: PC-3 cells (ATCC, US), human prostatic carcinoma cell line, were cultured in RMPI 1640 supplemented with 10% fetal bovine serum.
# Appropriate concentrations of cells (5×10^4 cells/ml) cultured in RMPI 1640 supplemented with 5% fetal bovine serum were poured into 96-well plate and incubated at 37° C. in 5% CO2 condition. The day after the incubation, PC-3 cells were fixed on Time zero (T0) plate by adding 50 μl/well of 50% trichloroacetic acid and the cell concentration was set to zero point by fixing the cells. In the cells treated with test samples, 50% TCA was added to each wells in 50 ul/well after 48 hrs to fix the cells. The final concentration of adding test compounds were 0.01, 0.03, 0.1, 0.3, 1 μg/ml respectively. Then, each fixed plate was washed, dried and 100 μl/well of 0.4% reaction solution containing sulforhodamine B (SRB) reagent dissolved in 0.1% acetic acid was added thereto to stain the cells. 30 minutes later, the cell was washed with 0.1% acetic acid, dried at room temperature, and 10 mM of TRIS base (pH 10.5) was added thereto to dissolve the staining agent. Finally, the absorbance detected at 540 nm was measured and the value was conversed into percentage comparing with that of control group. IC50 (μg/ml), the concentration of the group required to inhibit the cancer cell growth by 50%, was calculated from the data (AA: IC50's<1, A: IC50's<5, B: IC50's<10 and C: IC50's>10). Also, the inhibiting activity of cell growth was expressed as various symbols in accordance with the potency of examples e.g., AA: closely equivalent (1˜2 times), A: slightly weaker (3˜5 times), B: weaker (5˜10 times), C: very weaker (more than 10 times) than that of adriamycin used as a positive control group.
row,Structure (SMILES),IC50
1,"COc1cccc(CN2CC=C(CCC(=O)NO)C2=O)c1 [Example 10, N-hydroxy-3-[1-(3-methoxy-benzyl)-2-oxo-2,5-dihydro-1H-pyrrol-3-yl]-propionamide]",< 1 µg/mL
2,"O=C(CC1=CCN(CCCCc2ccccc2)C1=O)NO [Example 23, N-hydroxy-2-[2-oxo-1-(4-phenyl-butyl)-2,5-dihydro-1H-pyrrol-3-yl]-acetamide]",> 10 µg/mL
3,"O=C(CCC1=CCCN(Cc2ccc(NC(=O)c3ccccc3)cc2)C1=O)NO [Example 75, N-4-[5-(2-hydroxycarbamoyl-ethyl)-6-oxo-3,6-dihydro-2-pyridin-1-yl-methyl]-phenyl-benzamide]",< 10 µg/mL
4,"CC(=O)Nc1ccc(CN2CCC=C(CCC(=O)NO)C2=O)cc1 [Example 74, 3-[1-(4-acetylamino-benzyl)-2-oxo-1,2,5,6-tetrahydro-pyridin-3-yl)-N-hydroxy-propionamide]",> 10 µg/mL
5,"Cc1ccc(CN2CC=C(CCC(=O)NO)C2=O)cc1 [Example 8, N-hydroxy-3-[1-(4-methyl-benzyl)-2-oxo-2,5-dihydro-1H-pyrrol-3-yl]-propionamide]",< 5 µg/mL
6,"O=C(CCC1=CCCCN(CCCc2ccccc2)C1=O)NO [Example 106, N-Hydroxy-3-[2-oxo-1-(3-phenyl-ethyl)-2,5,6,7-tetrahydro-1H-azepin-3-yl]-propionamide]",> 10 µg/mL
7,"O=C(CCC1=CCN(CCc2ccccc2Br)C1=O)NO [Example 34, 3-{1-[2-(2-bromo-phenyl)-ethyl]-2-oxo-2,5-dihydro-1H-pyrrol-3-yl}-N-hydroxy-propionamide]",< 5 µg/mL
8,"COc1ccc(CN2CC=C(CCC(=O)NO)C2=O)cc1 [Example 11, N-hydroxy-3-[1-(4-methoxy-benzyl)-2-oxo-2,5-dihydro-1H-pyrrol-3-yl]-propionamide]",< 1 µg/mL
9,"O=C(CC1=CCCN(CCCCc2ccccc2)C1=O)NO [Example 86, N-hydroxy-2-[2-oxo-1-(4-phenyl-butyl)-1,2,5,6-tetrahydro-pyridin-3-yl]-N-hydroxy-acetamide]",> 10 µg/mL
10,"COc1ccccc1CCN1CC=C(CCC(=O)NO)C1=O [Example 36, N-hydroxy-3-{1-[2-(2-methoxy-phenyl)-ethyl]-2-oxo-2,5-dihydro-1H-pyrrol-3-yl}-propionamide]",< 5 µg/mL
11,"O=C(CCC1=CCN(Cc2ccc(Cl)cc2)C1=O)NO [Example 13, 3-[1-(4-chloro-benzyl)-2-oxo-2,5-dihydro-1H-pyrrol-3-yl]-N-hydroxy-propionamide]",< 5 µg/mL
12,"COc1ccc(CN2CCC=C(CCC(=O)NO)C2=O)c(OC)c1 [Example 57, 3-[1-(2,4-dimethoxybenzyl)-2-oxo-1,2,5,6-tetrahydro-pyridin-3-yl]-N-hydroxy-propionamide]",< 1 µg/mL
13,"O=C(CCC1=CCN(Cc2ccc3ccccc3c2)C1=O)NO [Example 49, N-hydroxy-3-(1-naphthalene-2-ylmethyl-2-oxo-2,5-dihydro-1H-pyrrol-3-yl)-propionamide]",< 5 µg/mL
14,"C=CCN1CC=C(CCC(=O)NO)C1=O [Example 51, 3-(1-allyl-2-oxo-2,5-dihydro-1H-pyrrol-3-yl)-N-hydroxy-propionamide]",> 10 µg/mL
15,"C=CCN1CCC=C(CCC(=O)NO)C1=O [Example 101, 3-(1-Allyl-2-oxo-1,2,5,6-tetrahydro-pyridin-3-yl)-N-hydroxy-propionamide]",> 10 µg/mL
16,"O=C(CCC1=CCN(CCc2cccs2)C1=O)NO [Example 54, N-hydroxy-3-[2-oxo-1-(2-thiophen-2-yl-ethyl)-2,5-dihydro-1H-pyrrol-3-yl]-propionamide]",< 5 µg/mL
17,"Cc1ccc(S(=O)(=O)Nc2ccc(CN3CC=C(CCC(=O)NO)C3=O)cc2)cc1 [Example 19, N-hydroxy-3-{2-oxo-1-[4-(toluene-4-sulfonylamino)-benzyl]-2,5-dihydro-1H-pyrrol-3-yl}-propionamide]",< 10 µg/mL
18,"O=C(CCC1=CCCN(Cc2ccc([N+](=O)[O-])cc2)C1=O)NO [Example 59, N-hydroxy-3-[1-(4-nitro-benzyl)-2-oxo-1,2,5,6-tetrahydro-pyridin-3-yl)-propionamide]",< 10 µg/mL

row,Structure (SMILES),IC50
1,"O=C(CCC1=CCCCN(CCCCc2ccccc2)C1=O)NO [Example 108, N-Hydroxy-3-[2-oxo-1-(4-phenyl-butyl)-2,5,6,7-tetrahydro-1H-azepin-3-yl]-propionamide]",> 10 µg/mL
2,"O=C(CC1=CCN(CCc2ccccc2)C1=O)NO [Example 22, N-hydroxy-2-(2-oxo-1-phenethyl-2,5-dihydro-1H-pyrrol-3-yl)-acetamide]",> 10 µg/mL
3,"COc1cccc(CCN2CC=C(CCC(=O)NO)C2=O)c1 [Example 37, N-hydroxy-3-{1-[2-(3-methoxy-phenyl)-ethyl]-2-oxo-2,5-dihydro-1H-pyrrol-3-yl}-propionamide]",< 5 µg/mL
4,"O=C(O)CCC1=CCN(Cc2ccccc2)C1=O [Example 17, 3-(1-benzyl-2-oxo-2,5-dihydro-1H-pyrrol-3-yl)-propionic acid]",> 10 µg/mL
5,"O=C(CCC1=CCN(CCc2cccc([N+](=O)[O-])c2)C1=O)NO [Example 32, N-hydroxy-3-{1-[2-(3-nitro-phenyl)-ethyl]-2-oxo-2,5-dihydro-1H-pyrrol-3-yl}-propionamide]",< 5 µg/mL
6,"O=C(CCC1=CCN(CCc2ccc(F)cc2)C1=O)NO [Example 30, 3-{1-[2-(4-fluoro-phenyl)-ethyl]-2-oxo-2,5-dihydro-1H-pyrrol-3-yl}-N-hydroxy-propionamide]",< 5 µg/mL
7,"O=C(O)CCC1=CCCN(Cc2ccc([N+](=O)[O-])cc2)C1=O [Example 65, 3-[1-(4-nitro-benzyl)-2-oxo-1,2,5,6-tetrahydro-pyridin-3-yl)-propionic acid]",> 10 µg/mL
8,"O=C(CCC1=CCN(CCCc2ccccc2)C1=O)NO [Example 4, N-hydroxy-3-[2-oxo-1-(3-phenyl-propyl)-2,5-dihydro-1H-pyrrol-3-yl]-propionamide]",< 5 µg/mL
9,"O=C(CCC1=CCCN(Cc2ccccc2)C1=O)Nc1ccccn1 [Example 69, 3-(1-benzyl-2-oxo-1,2,5,6-tetrahydro-pyridin-3-yl)-N-pyridin-2-yl-propionamide]",> 10 µg/mL
10,"O=C(CC1=CCN(Cc2ccc(OCc3ccccc3)cc2)C1=O)NO [Example 24, 2-[1-(4-benzyloxy-benzyl)-2-oxo-2,5-dihydro-1H-pyrrol-3-yl]-N-hydroxy-acetamide]",> 10 µg/mL
11,"COc1ccc(CN2CCC=C(CC(=O)NO)C2=O)c(OC)c1 [Example 82, 2-[1-(2,4-dimethoxy-benzyl)-2-oxo-1,2,5,6-tetrahydro-pyridin-3-yl]-N-hydroxy-acetamide]",> 10 µg/mL
12,"O=C(CC1=CCN(Cc2ccccc2)C1=O)NO [Example 20, 2-(1-benzyl-2-oxo-2,5-dihydro-1H-pyrrol-3-yl)-N-hydroxy-acetamide]",> 10 µg/mL
13,"Cc1ccccc1CCCN1CC=C(CCC(=O)NO)C1=O [Example 41, N-hydroxy-3-[2-oxo-1-(3-o-tolyl-propyl)-2,5-dihydro-1H-pyrrol-3-yl]-propionamide]",< 10 µg/mL
14,"COc1ccc(CN2CCC(CC(=O)NO)C2=O)c(OC)c1 (stereo not drawn) [Example 26, 2-[1-(2,4-dimethoxy-benzyl)-2-oxo-pyrrolidin-3-yl]-N-hydroxy-acetamide]",> 10 µg/mL
15,"O=C(CCC1=CCCN(Cc2ccccc2)C1=O)NO [Example 58, N-hydroxy-3-(1-benzyl-2-oxo-1,2,5,6-tetrahydro-pyridin-3-yl)-propionic acid]",< 10 µg/mL
16,"Cc1ccc(S(=O)(=O)Nc2ccc(CN3CCC=C(CCC(=O)NO)C3=O)cc2)cc1 [Example 77, N-hydroxy-3-2-oxo-1-[4-(toluene-4-sulfonylamino)-benzyl-1,2,5,6-tetrahydro-pyridin-3-yl]-propionamide]",< 5 µg/mL
17,"CN1CC=C(CCC(=O)NO)C1=O [Example 50, N-hydroxy-3-(1-methyl-2-oxo-2,5-dihydro-1H-pyrrol-3-yl)-propionamide]",< 1 µg/mL

# System: histone deacetylase (HDAC)
# Assay: HDAC Fluorescent Activity Assay/Drug Discovery Kit (Biomol) with nuclear extracts of HeLa cell as HDAC source
# Format: biochemical
# Settings: compounds 0.01 to 10 μM, 25° C., 20 minutes, fluorescence
# Procedure: Fluorogenic Histone Deacetylase Lysyl Substrate was used as substrate for HDAC and the test is based on the fact that the removal of acetyl group by HDAC activity causes the substrate to occur emmition wavelength in the ranging from 360 nm to 460 nm.
# Various concentrations of the compounds of the present invention ranging from 0.01 to 10 μM were reacted with HDAC enzyme at 25° C. for 20 minutes and equal volume of developer was added thereto. The fluorescence signal was detected at the wavelength in the range 350 to 460 nm using by fluorescence spectrometer.
row,Structure (SMILES),HDAC inhibition
1,"O=C(CCC1=CCN(CCCc2ccccc2)C1=O)NO [Example 4, N-hydroxy-3-[2-oxo-1-(3-phenyl-propyl)-2,5-dihydro-1H-pyrrol-3-yl]-propionamide]",AAA

# Reference: patent US7723376B2, “2-oxo-heterocyclic compounds and pharmaceutical compositions” (Korea Research Institute of Bioscience and Biotechnology, priority 2003, dated 2010)
